In US10725043B2, “Three-dimensional fibroblast aggregate and in vitro 3D skin dermis model comprising same” (S-BIOMEDICS, priority 2015, dated 2020):

Assays:
MMP1 [1] = experiment: MMP1 secretion (ELISA) in 3D fibroblast cluster treated with MMP inhibitors; type: cell-based, human; details: retinoic acid 10 mM, abietic acid 100 mM, TGF-b1 5 ng/ml, cultured 2 and 4 days, FIG. 16
Method: To prepare an in vitro 3D artificial dermis model, fibroblasts were first cultured. In detail, human dermal fibroblasts were cultured in high glucose Dulbecco's modified Eagle's medium (DMEM, Welgene, Daegu, South Korea) by using a tissue culture flask under conditions of 37° C., 5% CO2, and 95% O2 atmosphere. Human dermal fibroblasts of 5 passages were used for all experiments.
The fibroblasts were seeded onto the culture container, thereby preparing a 3D fibroblast cluster. In detail, fibroblasts were seeded onto the 96-well NTCP containing fibroblast growth medium (FGM, Lonza) at a concentration of 1.25×10^5 cells/cm^2 per well, and cultured at a temperature of 37° C. The fibroblasts were cultured in a 2D manner on a surface of the culture container, and separated from the surface. Such separated or delocalized 2D fibroblast cluster was then continuously cultured while floating in the culture container, and within 24 hours, a 3D fibroblast cluster was formed spontaneously. The formed 3D fibroblast cluster was collected on the 1st day (Day 1), 3rd day (Day 3), and 5th day (Day 5) of the culture. […] Hereinafter, the 3D fibroblast cluster was represented by ‘3DCM’.
In detail, the 3D fibroblast cluster of the culture at Day 1 prepared according to Example 2(1) was inoculated with retinoic acid (10 mM), abietic acid (100 mM), transforming growth factor-b1 (TGF-b1) (5 ng/ml) that were diluted in a […] (FGM, Lonza Company). The inoculated 3D fibroblast cluster was then cultured in a stationary incubator at a temperature of 37° C. for 2 and 4 days, separately. The culture broth was recovered therefrom, and was subjected to measurement of secretion of MMP1. Through the measurement, the culture broth was quantified by using the ELISA kit (R&D Company), wherein a method of using the kit was proceeded according to the supplier's protocol.

MMP1 [2] = experiment: MMP1 secretion (ELISA) in two-dimensionally cultured, UVB-irradiated fibroblasts treated with MMP inhibitors; type: cell-based, human; details: for secreted amount of MMP1 relative to the control group: 2D fibroblasts, UVB 20 mJ/cm^2, 2 days, FIG. 17; for decrease of MMP1 in 2D cells in comparison with the 3D cell cluster: 2D UVB fibroblasts versus 3D cell cluster
Method: As a control group for the 3D fibroblast cluster and for the comparison of the inhibitory effect of MMP inhibitors using the two-dimensionally cultured fibroblasts, fibroblasts irradiated with ultraviolet B (UVB) were used. In detail, fibroblasts that were suspended in high-concentration glucose DMEM were seeded onto each well of a tissue culture treated 6-well plate at a concentration of 2.5×10^5 cells/cm^2, and then, cultured in a stationary incubator at a temperature of 37° C. for 1 day. Next, a washing process was performed thereon three times by using PBS, a serum-free MEM medium was added thereto, and the fibroblasts were cultured in a stationary incubator at a temperature of 37° C. for 1 hour. After a washing process was performed thereon three times by using PBS, to induce overexpression of MMP1, UVB (20 mJ/cm^2) was irradiated thereto. Following UV irradiation, the resulting fibroblasts were inoculated with various concentrations of retinoic acid (2, 10, 40 mM), abietic acid (20, 100, 400 mM), and TGF-b1 (1, 5, 20, ng/ml) that were diluted in a fibroblast growth medium (FGM, Lonza Company). The inoculated fibroblasts were then additionally cultured in a stationary incubator at a temperature of 37° C. for 2 days. The culture broth was recovered therefrom, and was subjected to measurement of secretion of MMP1. Through the measurement, the culture broth was quantified by using the ELISA kit (R&D Company), wherein a method of using the kit was proceeded according to the supplier's protocol.

[3] = retinoic acid 2, 10, TGF-b1 1, 5, 20 ng/ml

Molecule	secretion levels of MMP1 relative to the control group (MMP1 [1])	secreted amount of MMP1 relative to the control group (MMP1 [2]; abietic acid 20 mM)	secreted amount of MMP1 relative to the control group (MMP1 [2]; abietic acid at least 100 mM)	decrease of MMP1 in 2D cells in comparison with the 3D cell cluster (MMP1 [2])	secreted amount of MMP1 relative to the control group (MMP1 [2]; [3])
CC(C)C1=CC2=CC[C@@H]3[C@](C)(CCC[C@@]3(C)C(=O)O)[C@H]2CC1 [abietic acid]	~81%	approximately reduced to half	about 2%		
CC1=C(/C=C/C(C)=C/C=C/C(C)=C/C(=O)O)C(C)(C)CCC1 [retinoic acid]	about 80%			about 2.7 times	about 30%
transforming growth factor-b1 [TGF-b1]	about 60%			1.7 to 2.4 times	25-35%
